In PubChem BioAssay AID256 (DTP/NCI, 2004):
“And” between values parts separate entries of the source, which are not always exact repeats. Identical values can stand only once. Inconclusive results and toxic doses are left out. The calls were made as follows: active = survival T/C of 150% or more; inactive = T/C below 125% in these data.

System: CD2F1 mice, L1210 leukemia ip, survival T/C
Experiment: NCI In Vivo Anticancer Drug Screen. Data for tumor model L1210 Leukemia (intraperitoneal) in CD2F1 (CDF1) mice
Settings: higher = longer survival
Procedure, shortened: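 Tumor-bearing mice (transplanted tumor) were split into treated and vehicle control groups, and the measured endpoint of each treated group was divided by that of its vehicle controls.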

[1] = endpoint: mean survival time, dose: 100.0 mg/kg/injection, schedule: Q01DX009 (ip), vehicle: saline with Tween-80
[2] = endpoint: mean survival time, dose: 100.0 mg/kg/injection, schedule: Q04DX003 (ip), vehicle: saline with Tween-80
[3] = endpoint: mean survival time, dose: 200.0 mg/kg/injection, schedule: Q01DX009 (ip), vehicle: saline with Tween-80
[4] = endpoint: mean survival time, dose: 200.0 mg/kg/injection, schedule: Q04DX003 (ip), vehicle: saline with Tween-80
[5] = endpoint: mean survival time, dose: 400.0 mg/kg/injection, schedule: Q04DX003 (ip), vehicle: saline with Tween-80
[6] = endpoint: mean survival time, dose: 50.0 mg/kg/injection, schedule: Q01DX009 (ip), vehicle: Klucel (hydroxypropylcellulose) (HPC)
[7] = endpoint: mean survival time, dose: 100.0 mg/kg/injection, schedule: Q01DX009 (ip), vehicle: Klucel (hydroxypropylcellulose) (HPC)
[8] = endpoint: mean survival time, dose: 200.0 mg/kg/injection, schedule: Q01DX009 (ip), vehicle: Klucel (hydroxypropylcellulose) (HPC)
[9] = endpoint: mean survival time, dose: 100.0 mg/kg/injection, schedule: Q01DX001 (ip), vehicle: saline
[10] = endpoint: mean survival time, dose: 200.0 mg/kg/injection, schedule: Q01DX001 (ip), vehicle: saline
[11] = endpoint: mean survival time, dose: 400.0 mg/kg/injection, schedule: Q01DX001 (ip), vehicle: saline
[12] = endpoint: mean survival time, dose: 100.0 mg/kg/injection, schedule: Q04DX003 (ip), vehicle: saline
[13] = endpoint: mean survival time, dose: 200.0 mg/kg/injection, schedule: Q04DX003 (ip), vehicle: saline
[14] = endpoint: mean survival time, dose: 400.0 mg/kg/injection, schedule: Q04DX003 (ip), vehicle: saline
[15] = endpoint: mean survival time, dose: 100.0 mg/kg/injection, schedule: Q01DX001 (ip), vehicle: saline with Tween-80
[16] = endpoint: mean survival time, dose: 200.0 mg/kg/injection, schedule: Q01DX001 (ip), vehicle: saline with Tween-80
[17] = endpoint: mean survival time, dose: 400.0 mg/kg/injection, schedule: Q01DX001 (ip), vehicle: saline with Tween-80
[18] = endpoint: mean survival time, dose: 400.0 mg/kg/injection, schedule: Q01DX009 (ip), vehicle: saline with Tween-80
[19] = endpoint: mean survival time, dose: 25.0 mg/kg/injection, schedule: Q04DX003 (ip), vehicle: saline
[20] = endpoint: mean survival time, dose: 50.0 mg/kg/injection, schedule: Q04DX003 (ip), vehicle: saline

Measured: T/C

CCOC(=O)Nc1ccc2nnn(C3OC(CO)C(O)C3O)c2n1 (configuration not stated)
inactive: endpoint: mean survival time, dose: 12.5 mg/kg/injection, schedule: Q01DX005 (ip), vehicle: water 94 % of control | endpoint: mean survival time, dose: 25.0 mg/kg/injection, schedule: Q01DX005 (ip), vehicle: water 102 % of control | endpoint: mean survival time, dose: 50.0 mg/kg/injection, schedule: Q01DX005 (ip), vehicle: water 98 % of control | endpoint: mean survival time, dose: 100.0 mg/kg/injection, schedule: Q01DX005 (ip), vehicle: water 102 % of control | endpoint: mean survival time, dose: 200.0 mg/kg/injection, schedule: Q01DX005 (ip), vehicle: water 94 % of control | endpoint: mean survival time, dose: 400.0 mg/kg/injection, schedule: Q01DX005 (ip), vehicle: water 94 % of control

CC(=O)C1=C(C)NC(C)=C(C(C)=O)C1C
inactive: [1] 100 % of control | [2] 93 % of control | [3] 95 % of control | [4] 97 % of control | [5] 92 % of control

O=C(Nc1nccs1)Nc1cc([N+](=O)[O-])ccc1F
inactive: [6] 104 % of control | [7] 96 % of control | [8] 93 % of control

CCOC(=O)C1(C(=O)OCC)CCC(O)N1C(=O)c1cc2c(cc1[N+](=O)[O-])OCO2 (configuration not stated)
inactive: [6] 97 % of control | [7] 101 % of control | [8] 101 % of control

NC(=S)N/N=C/c1ccc(-c2ccccc2)cc1
inactive: [2] 97 % of control

CC(=O)CCCOC(C)=O
inactive: [9] 103 % of control | [10] 100 % of control | [11] 100 % of control

O=C(O)CCC(CCC(=O)O)(C(=O)O)C(=O)O
inactive: endpoint: median survival time, dose: 75.0 mg/kg/injection, schedule: Q01DX009 (ip), vehicle: saline 98 % of control | endpoint: median survival time, dose: 150.0 mg/kg/injection, schedule: Q01DX009 (ip), vehicle: saline 96 % of control | endpoint: median survival time, dose: 300.0 mg/kg/injection, schedule: Q01DX009 (ip), vehicle: saline 96 % of control

CC(C)(CNC1CCCCC1)OC(=O)c1ccc(N)cc1
inactive: endpoint: mean survival time, dose: 5.0 mg/kg/injection, schedule: Q01DX001 (ip), vehicle: saline 102 % of control | endpoint: mean survival time, dose: 10.0 mg/kg/injection, schedule: Q01DX001 (ip), vehicle: saline 96 % of control | endpoint: mean survival time, dose: 20.0 mg/kg/injection, schedule: Q01DX001 (ip), vehicle: saline 98 % of control | endpoint: mean survival time, dose: 40.0 mg/kg/injection, schedule: Q01DX001 (ip), vehicle: saline 104 % of control

CSc1cccnn1
inactive: [12] 93 % of control | [13] 98 % of control | [14] 95 % of control

COc1c(Cl)c(=O)oc2ccc(Cl)cc12
inactive: [15] 93 % of control | [16] 90 % of control | [17] 88 % of control

CCN(CC)CC(C)(C)C(=O)/C=C/c1ccc(/C=C/C(=O)C(C)(C)CN(CC)CC)cc1
inactive: endpoint: median survival time, dose: 3.75 mg/kg/injection, schedule: Q01DX005 (ip), vehicle: saline 98 % of control | endpoint: median survival time, dose: 7.5 mg/kg/injection, schedule: Q01DX005 (ip), vehicle: saline 107 % of control | endpoint: median survival time, dose: 15.0 mg/kg/injection, schedule: Q01DX005 (ip), vehicle: saline 107 % of control | endpoint: median survival time, dose: 30.0 mg/kg/injection, schedule: Q01DX005 (ip), vehicle: saline 116 % of control

C=C(NC(C)=O)C(=O)CCC(N)=O
inactive: endpoint: mean survival time, dose: 5.0 mg/kg/injection, schedule: Q01DX009 (ip), vehicle: saline 101 % of control | endpoint: mean survival time, dose: 10.0 mg/kg/injection, schedule: Q01DX009 (ip), vehicle: saline 95 % of control | endpoint: mean survival time, dose: 10.0 mg/kg/injection, schedule: Q04DX003 (ip), vehicle: saline 93 % of control | endpoint: mean survival time, dose: 20.0 mg/kg/injection, schedule: Q01DX009 (ip), vehicle: saline 98 % of control | endpoint: mean survival time, dose: 20.0 mg/kg/injection, schedule: Q04DX003 (ip), vehicle: saline 97 % of control

CC(=O)OCC1OC(OC2C(COC(C)=O)OC(Sc3ccccc3)C(OC(C)=O)C2OC(C)=O)C(OC(C)=O)C(OC(C)=O)C1OC(C)=O (configuration not stated)
inactive: endpoint: mean survival time, dose: 0.78 mg/kg/injection, schedule: Q01DX009 (ip), vehicle: saline with Tween-80 105 % of control | endpoint: mean survival time, dose: 1.56 mg/kg/injection, schedule: Q01DX009 (ip), vehicle: saline with Tween-80 101 % of control | endpoint: mean survival time, dose: 3.13 mg/kg/injection, schedule: Q01DX009 (ip), vehicle: saline with Tween-80 101 % of control | [1] 95 % of control | [3] 98 % of control | [18] 93 % of control

CCC[CH2][Sn]([CH2]CCC)[CH2]CCC.CCC[CH2][Sn]([CH2]CCC)[CH2]CCC
inactive: endpoint: mean survival time, dose: 12.5 mg/kg/injection, schedule: Q04DX003 (ip), vehicle: Klucel (hydroxypropylcellulose) (HPC) 93 % of control | [19] 97 % of control | [20] 97 % of control

OC1C2CC3C1C3C2O (configuration not stated)
inactive: [2] 94 % of control | [4] 97 % of control | [5] 105 % of control

CC(=O)OCC#CCOC(C)=O
inactive: endpoint: mean survival time, dose: 50.0 mg/kg/injection, schedule: Q01DX009 (ip), vehicle: saline with Tween-80 93 % of control

OC1c2ccccc2C2CC12 (configuration not stated)
inactive: [15] 105 % of control | [16] 102 % of control | [17] 105 % of control

CC[n+]1cccc2ccccc21
inactive: endpoint: mean survival time, dose: 18.8 mg/kg/injection, schedule: Q01DX009 (ip), vehicle: saline 95 % of control | [19] 96 % of control | endpoint: mean survival time, dose: 37.5 mg/kg/injection, schedule: Q01DX009 (ip), vehicle: saline 96 % of control

O=C(Nc1ccc(CCO)cc1)Nc1ccc(F)c([N+](=O)[O-])c1
inactive: [15] 98 % of control | [1] 93 % of control | [2] 101 % of control | [16] 96 % of control | [3] 94 % of control | [4] 98 % of control | [17] 92 % of control | [18] 93 % of control | [5] 102 % of control

Nc1n[n+](-c2ccccc2)no1
inactive: endpoint: mean survival time, dose: 1.56 mg/kg/injection, schedule: Q01DX009 (ip), vehicle: water 106 % of control | endpoint: mean survival time, dose: 3.12 mg/kg/injection, schedule: Q01DX009 (ip), vehicle: water 97 % of control and 100 % of control | endpoint: mean survival time, dose: 6.25 mg/kg/injection, schedule: Q01DX009 (ip), vehicle: water 102 % of control and 105 % of control | endpoint: mean survival time, dose: 12.5 mg/kg/injection, schedule: Q01DX009 (ip), vehicle: water 101 % of control and 108 % of control | endpoint: mean survival time, dose: 25.0 mg/kg/injection, schedule: Q01DX009 (ip), vehicle: water 121 % of control and 111 % of control | endpoint: mean survival time, dose: 50.0 mg/kg/injection, schedule: Q01DX009 (ip), vehicle: water 94 % of control

C[N+](C)(C)CCP(=O)([O-])O
inactive: [12] 98 % of control | [13] 101 % of control | [14] 101 % of control

O=C1C=CC(=CC=C2C=CN(CCCCCCCCCCCO)C=C2)C=C1
inactive: endpoint: median survival time, dose: 1.56 mg/kg/injection, schedule: Q01DX005 (ip), vehicle: saline with Tween-80 96 % of control | endpoint: median survival time, dose: 2.25 mg/kg/injection, schedule: Q01DX005 (ip), vehicle: saline with Tween-80 102 % of control and 105 % of control | endpoint: median survival time, dose: 3.13 mg/kg/injection, schedule: Q01DX005 (ip), vehicle: saline with Tween-80 107 % of control | endpoint: median survival time, dose: 3.75 mg/kg/injection, schedule: Q01DX005 (ip), vehicle: saline with Tween-80 102 % of control and 105 % of control | endpoint: median survival time, dose: 6.25 mg/kg/injection, schedule: Q01DX005 (ip), vehicle: saline with Tween-80 117 % of control and 109 % of control | endpoint: median survival time, dose: 10.4 mg/kg/injection, schedule: Q01DX005 (ip), vehicle: saline with Tween-80 118 % of control | endpoint: median survival time, dose: 10.41 mg/kg/injection, schedule: Q01DX005 (ip), vehicle: saline with Tween-80 118 % of control | endpoint: median survival time, dose: 12.5 mg/kg/injection, schedule: Q01DX005 (ip), vehicle: saline with Tween-80 119 % of control | endpoint: median survival time, dose: 17.35 mg/kg/injection, schedule: Q01DX005 (ip), vehicle: saline with Tween-80 119 % of control | endpoint: median survival time, dose: 17.4 mg/kg/injection, schedule: Q01DX005 (ip), vehicle: saline with Tween-80 121 % of control | endpoint: median survival time, dose: 25.0 mg/kg/injection, schedule: Q01DX005 (ip), vehicle: saline with Tween-80 92 % of control

C=Cc1cc[n+](CCCCCC[n+]2ccc(C=C)cc2)cc1
inactive: [9] 92 % of control | [10] 92 % of control | [11] 88 % of control

Cc1cc(=O)c2c(=O)[nH][nH]c2[nH]1
inactive: [1] 98 % of control | [3] 104 % of control

O=S(=O)(c1ccccc1)c1cccs1
inactive: [20] 93 % of control | [9] 110 % of control | [12] 98 % of control | [10] 112 % of control | [13] 95 % of control | [11] 112 % of control
